17 compounds from patent publication US20200206233A1 (INTEGRAL BIOSCIENCES PRIVATE LIMITED, priority 2018, published 2020) can be followed below.

Common to all, as to type: biochemical
One assay deals with T1, IDH1-WT (Homo sapiens, UniProt O75874).
T1 construct: purchased BPS Bioscience 71075-2
Briefly: IDH1-WT Fluorescence Assay (Resazurin based). The note with it: 1 nM IDH1-WT, 200 μM isocitrate, 15 μM NADP+, 30 min at room temperature. How it is done: IC50 values of compounds against IDH1-WT was determined by Resazurin based Fluorescence assay. Assays were performed in Buffer (50 mM Tris HCl, 10 mM MgCl2, 0.03% BSA, 2 mM ß-mercaptoethanol) where total reaction volume was 25 μL in low-volume 96-well plates. Serially diluted compounds (3-fold) in DMSO (0.5% in final reaction) were incubated with cocktail of isocitrate (200 μM; Cat # I1252-1G, Sigma), NADP^+ (15 μM; Cat # N0505-500MG, Sigma) and buffer for 5 min, following addition of IDH1-WT enzyme (1 nM; Cat #71075-2, BPS Bioscience) and incubated in dark at room temperature for 30 min. After that, 12.5 μL detection solution containing Resazurin (60 μM; Cat #62758-13-8, Sigma) and Diaphorase (40 μg/ml; Cat # D2197-300UN, Sigma) in buffer was added and incubated for 15 min. Readings were taken using a Synergy Neo Plate reader (BioTek, Winooski) at single excitation of 540 nm and emission at 590 nm respectively.
The % (percent) activity of test samples was calculated as (Sample−Min)×100/(Max−Min). [Max: DMSO control, complete reaction with enzyme with DMSO and Min: No enzyme with DMSO]. Percent inhibition (100−% activity) was fitted to the “four-parameter logistic model” in XLfit for determination of IC50 values.
On the technique in general: Alamar Blue is a resazurin reagent that responds to reducing activity.

A further assay deals with T2, IDH1 mutant (R132H) (Homo sapiens, UniProt O75874, R132H).
T2 construct: purchased BPS Bioscience 71099-2
T2 sequence (O75874 whole entry R132H): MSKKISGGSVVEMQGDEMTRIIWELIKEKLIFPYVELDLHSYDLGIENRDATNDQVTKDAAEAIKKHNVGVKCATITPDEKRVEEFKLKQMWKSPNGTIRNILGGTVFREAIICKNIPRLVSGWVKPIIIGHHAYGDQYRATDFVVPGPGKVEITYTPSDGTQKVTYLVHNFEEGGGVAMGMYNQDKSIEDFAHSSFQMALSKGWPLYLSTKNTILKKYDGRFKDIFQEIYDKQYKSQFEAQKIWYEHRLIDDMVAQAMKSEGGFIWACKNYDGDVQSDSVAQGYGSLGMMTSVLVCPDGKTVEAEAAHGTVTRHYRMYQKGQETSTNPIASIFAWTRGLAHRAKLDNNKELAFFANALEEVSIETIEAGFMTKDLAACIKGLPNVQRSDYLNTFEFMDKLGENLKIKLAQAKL
The assay is described as follows: Mutant IDH1-R132H Fluorescence Assay (Resazurin based). Particulars: 10 nM IDH1 R132H, 4 mM α-ketoglutarate, NADPH, 1.5 h at room temperature. The method in brief: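 Recombinant IDH1 R132H (10 nM) was run with α-ketoglutarate (4 mM) and NADPH ([…]) for 1.5 h at room temperature in Tris pH buffer with MgCl2, BSA and mercaptoethanol. Remaining NADPH was detected via diaphorase/resazurin fluorescence (ex 540/em 590 nm). IC50 came from a 4-parameter logistic fit.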

The target of another assay is T3, IDH2 mutant (R140Q) (Homo sapiens, UniProt P48735, R140Q).
T3 construct: purchased BPS Bioscience 71100-2
T3 sequence (P48735 40-452 R140Q): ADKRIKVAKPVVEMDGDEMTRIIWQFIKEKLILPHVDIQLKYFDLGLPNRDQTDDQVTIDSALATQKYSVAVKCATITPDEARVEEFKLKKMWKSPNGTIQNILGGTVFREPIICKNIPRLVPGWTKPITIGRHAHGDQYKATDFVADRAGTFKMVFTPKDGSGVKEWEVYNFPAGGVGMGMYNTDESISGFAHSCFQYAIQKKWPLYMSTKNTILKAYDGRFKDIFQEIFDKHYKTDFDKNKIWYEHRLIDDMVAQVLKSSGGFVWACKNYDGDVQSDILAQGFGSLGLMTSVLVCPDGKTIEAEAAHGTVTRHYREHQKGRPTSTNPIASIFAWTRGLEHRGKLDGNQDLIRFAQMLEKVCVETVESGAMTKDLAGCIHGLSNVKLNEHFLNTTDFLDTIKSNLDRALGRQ
The assay is described as follows: Mutant IDH2-R140Q Fluorescence Assay (Resazurin based). Particulars: 5 nM IDH2 R140Q, 4 hr pre-incubation, 1 mM α-ketoglutarate, 5 μM NADPH, 2 h. How it is done:
IC50 values of compounds against IDH2 mutant (R140Q) were determined by Resazurin based Fluorescence assay. Assay was performed in Buffer (25 mM Tris HCl, 150 mM NaCl, 10 mM MgCl2, 0.03% BSA, 2 mM 1-mercaptoethanol) where total reaction volume was 12.5 μL in low-volume 384-well plates (Cat #4511, Corning). Serially diluted compounds (3-fold) were pre-incubated with IDH2 R140Q mutant enzyme (5 nM; Cat #71100-2, BPS Bioscience) for 4 hr at RT (25° C.) followed by addition of cocktail of α-ketoglutarate (1 mM; Cat #75892-25G, Sigma), and NADPH (5 μM; Cat # N1630-100MG, Sigma) with buffer in dark at room temperature for 2 h. After 2 h incubation, 6.25 μL detection solution containing Resazurin (30 μM; (Cat #62758-13-8, Sigma) and Diaphorase (40 ug/ml; Cat # D2197-300UN, Sigma) in buffer was added and incubated for 15 min. Readings were taken in a Synergy Neo Plate reader (BioTek, Winooski) at single excitation of 540 nm and emission at 590 nm respectively.
The % activity of test samples was calculated as (Sample−Min)×100/(Max−Min). [Max: DMSO control, complete reaction with enzyme with DMSO and Min: No enzyme with DMSO]. Percent inhibition (100−% activity) was fitted to the “four-parameter logistic model” in XLfit for determination of IC50 values.

Some results are limits rather than exact numbers.

T1 sequence (O75874 whole entry): as the sequence (O75874 whole entry R132H) above, with H132R counted along it

As a reminder, the IC50 is the concentration needed to halve the response being measured. Take `CC[C@H]1COC(=O)N1c1nc(C)nc(N[C@@H](C)c2ccc(Oc3cccnc3C(F)(F)F)cc2)n1` [Compound 1.81, (S)-4-ethyl-3-(4-methyl-6-((S)-1-(4-(2-(trifluoromethyl)pyridin-3-yloxy)phenyl)ethylamino)-1,3,5-triazin-2-yl)oxazolidin-2-one]: the IC50 on IDH1-WT is more than 50 µM; on IDH1 mutant (R132H) it was 0.586 µM; at IDH2 mutant (R140Q), more than 50 µM.

In the case of `CC[C@H]1COC(=O)N1c1nc(C)nc(N[C@@H](C)c2ccc(Oc3ccccc3)cn2)n1` [Compound 1.75, (S)-4-ethyl-3-(4-methyl-6-((S)-1-(5-phenoxypyridin-2-yl)ethylamino)-1,3,5-triazin-2-yl)oxazolidin-2-one], the IC50 at IDH1-WT is more than 50 µM; on IDH1 mutant (R132H), 0.832 µM; at IDH2 mutant (R140Q), more than 50 µM.

For `CC(C)[C@H]1COC(=O)N1c1ncnc(NCc2ccc(Oc3ccccc3)cc2)n1` [Compound 1.28, (S)-4-isopropyl-3-(4-(4-phenoxybenzylamino)-1,3,5-triazin-2-yl)oxazolidin-2-one], the values for the IC50 on IDH1-WT, on IDH1 mutant (R132H) and on IDH2 mutant (R140Q) were more than 50 µM, 4.52 µM and more than 50 µM, respectively.

`CC(C)[C@H]1COC(=O)N1c1ncnc(N[C@@H](C)c2ccc(-c3ccc(C(F)(F)F)cc3)cn2)n1` [Compound 1.4, (S)-4-isopropyl-3-(4-((S)-1-(5-(4-(trifluoromethyl)phenyl)pyridin-2-yl)ethylamino)-1,3,5-triazin-2-yl)oxazolidin-2-one]: the IC50 on IDH1-WT was more than 30 µM; on IDH1 mutant (R132H) it was 3.3 µM; on IDH2 mutant (R140Q), more than 50 µM.

Consider `CC[C@H]1COC(=O)N1c1nc(C)nc(N[C@@H](C)c2ccc(Oc3ccc4ccccc4c3)cc2)n1` [Compound 1.94, (S)-4-ethyl-3-(4-methyl-6-((S)-1-(4-(naphthalen-2-yloxy)phenyl)ethylamino)-1,3,5-triazin-2-yl)oxazolidin-2-one], for which the IC50 on IDH1-WT is more than 50 µM; at IDH1 mutant (R132H) it was 0.52 µM; at IDH2 mutant (R140Q), more than 50 µM.

As for `Cc1cc(-c2cnc([C@H](C)Nc3ncnc(N4C(=O)OC[C@@H]4C(C)C)n3)nc2)ccc1F` [Compound 1.1, (S)-3-(4-((S)-1-(5-(4-fluoro-3-methylphenyl)pyrimidin-2-yl)ethylamino)-1,3,5-triazin-2-yl)-4-isopropyloxazolidin-2-one], the IC50 at IDH1-WT was more than 50 µM; on IDH1 mutant (R132H) it was 2.77 µM; on IDH2 mutant (R140Q), more than 50 µM.

Turning to `CC[C@H]1COC(=O)N1c1nc(C)nc(N[C@@H](C)c2ccc(Oc3ccc(C)cc3)cc2)n1` [Compound 1.83, (S)-4-ethyl-3-(4-methyl-6-((S)-1-(4-(p-tolyloxy)phenyl)ethylamino)-1,3,5-triazin-2-yl)oxazolidin-2-one], the values for the IC50 at IDH1-WT, at IDH1 mutant (R132H) and on IDH2 mutant (R140Q) were more than 50 µM, 0.34 µM and more than 50 µM, respectively.

On to `CC[C@H]1COC(=O)N1c1nc(C)nc(N[C@@H](C)c2ccc(Oc3ccc(F)cc3)cc2)n1` [Compound 1.58, (S)-4-ethyl-3-(4-((S)-1-(4-(4-fluorophenoxy)phenyl)ethylamino)-6-methyl-1,3,5-triazin-2-yl)oxazolidin-2-one], for which the IC50 at IDH1-WT was more than 50 µM; on IDH1 mutant (R132H) it was 0.308 µM; on IDH2 mutant (R140Q) it was more than 50 µM.

Regarding `CC[C@H]1COC(=O)N1c1nc(C)nc(N[C@H](C)c2cc3cc(Cl)c(OC(C)C)cc3[nH]c2=O)n1` [Compound 1.105, (S)-3-(4-((R)-1-(6-chloro-7-isopropoxy-2-oxo-1,2-dihydroquinolin-3-yl)ethylamino)-6-methyl-1,3,5-triazin-2-yl)-4-ethyloxazolidin-2-one], the IC50 on IDH1-WT was more than 50 µM; on IDH1 mutant (R132H) it was 0.66 µM; at IDH2 mutant (R140Q), more than 50 µM.

Consider `CC(C)[C@H]1COC(=O)N1c1ncnc(N[C@@H](C)c2ccc(Oc3ccccc3)cn2)n1` [Compound 1.19, (S)-4-isopropyl-3-(4-((S)-1-(5-phenoxypyridin-2-yl)ethylamino)-1,3,5-triazin-2-yl)oxazolidin-2-one], for which the IC50 on IDH1-WT was more than 50 µM; on IDH1 mutant (R132H), 1.66 µM; on IDH2 mutant (R140Q) it was more than 50 µM.

For the compound `CC(C)[C@H]1COC(=O)N1c1ncnc(N[C@@H](C)c2cn(-c3ccc(C(F)(F)F)cc3)cn2)n1` [Compound 1.5, (S)-4-isopropyl-3-(4-((S)-1-(1-(4-(trifluoromethyl)phenyl)-1H-imidazol-4-yl)ethylamino)-1,3,5-triazin-2-yl)oxazolidin-2-one], the IC50 at IDH1-WT is more than 30 µM; at IDH1 mutant (R132H), 0.575 µM; at IDH2 mutant (R140Q), more than 50 µM.

On to `CC(C)[C@H]1COC(=O)N1c1ncnc(N[C@@H](C)c2cc3cc(Cl)ccc3[nH]c2=O)n1` [Compound 1.23, (S)-3-(4-((S)-1-(6-chloro-2-oxo-1,2-dihydroquinolin-3-yl)ethylamino)-1,3,5-triazin-2-yl)-4-isopropyloxazolidin-2-one], for which the IC50 at IDH1-WT was more than 50 µM; at IDH1 mutant (R132H), 0.36 µM; at IDH2 mutant (R140Q), more than 50 µM.

Take `CC[C@H]1COC(=O)N1c1nc(N[C@@H](C)c2cn(-c3ccc(C(F)(F)F)cc3)cn2)nc(OC)n1` [Compound 1.41, (S)-4-ethyl-3-(4-methoxy-6-((S)-1-(1-(4-(trifluoromethyl)phenyl)-1H-imidazol-4-yl)ethylamino)-1,3,5-triazin-2-yl)oxazolidin-2-one]: the IC50 on IDH1-WT was more than 50 µM; at IDH1 mutant (R132H), 0.707 µM; at IDH2 mutant (R140Q), more than 50 µM.

As to `CC[C@H]1COC(=O)N1c1ncnc(N[C@@H](C)c2ccc(Oc3ccccc3)cc2)n1` [Compound 1.29, (S)-4-ethyl-3-(4-((S)-1-(4-phenoxyphenyl)ethylamino)-1,3,5-triazin-2-yl)oxazolidin-2-one], the figures for the IC50 at IDH1-WT, on IDH1 mutant (R132H) and on IDH2 mutant (R140Q) were more than 50 µM, 0.492 µM and more than 50 µM, respectively.

For `CC[C@H]1COC(=O)N1c1nc(C)nc(N[C@@H](C)c2ccc(Oc3ccc(F)cc3Br)cc2)n1` [Compound 1.78, (S)-3-(4-((S)-1-(4-(2-bromo-4-fluorophenoxy)phenyl)ethylamino)-6-methyl-1,3,5-triazin-2-yl)-4-ethyloxazolidin-2-one], the IC50 on IDH1-WT was more than 50 µM; on IDH1 mutant (R132H), 0.44 µM; on IDH2 mutant (R140Q), more than 50 µM.

`CC(C)[C@H]1COC(=O)N1c1ncnc(N[C@@H](C)c2ccc(Cl)c(Cl)c2)n1` [Compound 1.7, (S)-3-(4-((S)-1-(3,4-dichlorophenyl)ethylamino)-1,3,5-triazin-2-yl)-4-isopropyloxazolidin-2-one]: the IC50 on IDH1-WT was more than 30 µM; at IDH1 mutant (R132H), 2.87 µM; on IDH2 mutant (R140Q) it was more than 50 µM.

For the compound `CC[C@H]1COC(=O)N1c1nc(C)nc(N[C@@H](C)c2ccc3ccn(-c4ccccc4)c3c2)n1` [Compound 1.85, (S)-4-ethyl-3-(4-methyl-6-((S)-1-(1-phenyl-1H-indol-6-yl)ethylamino)-1,3,5-triazin-2-yl)oxazolidin-2-one], the IC50 was more than 50 µM at IDH1-WT, 0.914 µM at IDH1 mutant (R132H) and more than 50 µM at IDH2 mutant (R140Q).
